Laboratory results published in EP0423247B1, “COUMAMIDINE COMPOUNDS” (ABBOTT LABORATORIES, priority 1988, dated 1990).
In brackets after ≈: the same amount, converted by molar mass.

Key:
[1] = tested on: Actinetobacter SP CMX 669; assay: MIC, agar dilution method (Brain Heart Infusion agar); format: cell-based; details: Actinetobacter SP CMX 669, grown aerobically, BHI agar, read-out: Minimum inhibitory concentrations
Method: (§1) Minimum inhibitory concentration (MIC) was determined by the agar dilution method, described hereinbelow, using Brain Heart Infusion agar.
(§2) Twelve petri dishes were prepared, each containing successive aqueous 2-fold dilutions of the test compounds mixed with 10 mL of sterilized Brain Heart Infusion (BHI) agar.
(§3) The MIC was defined as the lowest concentration of test compound yielding no growth, a slight haze, or sparsely isolated colonies on the inoculum spot as compared to the growth control containing no test compound.

[2] = tested on: Campylobacter jejuni ATTC 29428; assay: as above; format: cell-based; details: ATTC29428, Campylobacter jejuni ATTC 29428, grown aerobically, BHI agar, read-out: Minimum inhibitory concentrations
Method: as §1, §2, §3

[3] = tested on: Enterobacter aerogenes ATCC 13048; assay: as above; format: cell-based; details: Klebsiella aerogenes, ATCC13048, Enterobacter aerogenes ATCC 13048, grown aerobically, BHI agar, read-out: Minimum inhibitory concentrations
Method: as §1, §2, §3

[4] = tested on: Enterobacter cloacae CMX 650A; assay: as above; format: cell-based; details: CMX650A, grown aerobically, BHI agar, read-out: Minimum inhibitory concentrations
Method: as §1, §2, §3

[5] = tested on: Enterococcus faecium ATCC 8043; assay: as above; format: cell-based; details: ATCC8043, Enterococcus faecium ATCC 8043, grown aerobically, BHI agar, read-out: Minimum inhibitory concentrations
Method: as §1, §2, §3

Escherichia coli JUHL = assay: as above; format: cell-based; details: grown aerobically, BHI agar, read-out: Minimum inhibitory concentrations
Method: as §1, §2, §3

Escherichia coli SS = assay: as above; format: cell-based; details: grown aerobically, BHI agar, read-out: Minimum inhibitory concentrations
Method: as §1, §2, §3

[6] = tested on: Haemophilus influenzae 503B; assay: as above; format: cell-based; details: grown aerobically, BHI agar, read-out: Minimum inhibitory concentrations
Method: as §1, §2, §3

[7] = tested on: Klebsiella pneumoniae ATCC 8045; assay: as above; format: cell-based; details: ATCC8045, Klebsiella pneumoniae ATCC 8045, grown aerobically, BHI agar, read-out: Minimum inhibitory concentrations
Method: as §1, §2, §3

[8] = tested on: Neisseria gonorrhoeae 35FAMPI; assay: as above; format: cell-based; details: grown aerobically, BHI agar, read-out: Minimum inhibitory concentrations
Method: as §1, §2, §3

[9] = tested on: Neisseria gonorrhoeae CMX 591; assay: as above; format: cell-based; details: CMX591, Neisseria gonorrhoeae CMX 591, grown aerobically, BHI agar, read-out: Minimum inhibitory concentrations
Method: as §1, §2, §3

[10] = tested on: Proteus mirabilis CMX 704F; assay: as above; format: cell-based; details: CMX704F, grown aerobically, BHI agar, read-out: Minimum inhibitory concentrations
Method: as §1, §2, §3

[11] = tested on: Proteus vulgaris ABBOTT JJ; assay: as above; format: cell-based; details: grown aerobically, BHI agar, read-out: Minimum inhibitory concentrations
Method: as §1, §2, §3

[12] = tested on: Providencia stuartii CMX 640; assay: as above; format: cell-based; details: CMX640, Providencia stuartii CMX 640, grown aerobically, BHI agar, read-out: Minimum inhibitory concentrations
Method: as §1, §2, §3

[13] = tested on: Pseudomonas aeruginosa A5007; assay: as above; format: cell-based; details: Pseudomonas aeruginosa A5007, grown aerobically, BHI agar, read-out: Minimum inhibitory concentrations
Method: as §1, §2, §3

[14] = tested on: Pseudomonas aeruginosa ATCC 27853; assay: as above; format: cell-based; details: ATCC27853, Pseudomonas aeruginosa ATCC 27853, grown aerobically, BHI agar, read-out: Minimum inhibitory concentrations
Method: as §1, §2, §3

[15] = tested on: Pseudomonas aeruginosa BMH 10; assay: as above; format: cell-based; details: BMH10, Pseudomonas aeruginosa BMH 10, grown aerobically, BHI agar, read-out: Minimum inhibitory concentrations
Method: as §1, §2, §3

[16] = tested on: Pseudomonas aeruginosa CFS 387C; assay: as above; format: cell-based; details: CFS387C, grown aerobically, BHI agar, read-out: Minimum inhibitory concentrations
Method: as §1, §2, §3

[17] = tested on: Pseudomonas aeruginosa CFS 389; assay: as above; format: cell-based; details: CFS389, Pseudomonas aeruginosa CFS 389, grown aerobically, BHI agar, read-out: Minimum inhibitory concentrations
Method: as §1, §2, §3

[18] = tested on: Pseudomonas aeruginosa K799/WT; assay: as above; format: cell-based; details: grown aerobically, BHI agar, read-out: Minimum inhibitory concentrations
Method: as §1, §2, §3

Pseudomonas cepacia 296I = assay: as above; format: cell-based; details: Burkholderia cepacia, grown aerobically, BHI agar, read-out: Minimum inhibitory concentrations
Method: as §1, §2, §3

[19] = tested on: Serratia marcescens CMX 657E; assay: as above; format: cell-based; details: CMX657E, grown aerobically, BHI agar, read-out: Minimum inhibitory concentrations
Method: as §1, §2, §3

[20] = tested on: Serratia marcescens CMX 740C; assay: as above; format: cell-based; details: CMX740C, grown aerobically, BHI agar, read-out: Minimum inhibitory concentrations
Method: as §1, §2, §3

Staphylococcus aureus 45 = assay: as above; format: cell-based; details: Staphylococcus aureus 45, grown aerobically, BHI agar, read-out: Minimum inhibitory concentrations
Method: as §1, §2, §3

[21] = tested on: Staphylococcus aureus A5177; assay: as above; format: cell-based; details: Staphylococcus aureus A5177, grown aerobically, BHI agar, read-out: Minimum inhibitory concentrations
Method: as §1, §2, §3

[22] = tested on: Staphylococcus aureus ATCC 6538P; assay: as above; format: cell-based; details: ATCC6538P, grown aerobically, BHI agar, read-out: Minimum inhibitory concentrations
Method: as §1, §2, §3

[23] = tested on: Staphylococcus aureus CMX 686B; assay: as above; format: cell-based; details: CMX686B, grown aerobically, BHI agar, read-out: Minimum inhibitory concentrations
Method: as §1, §2, §3

[24] = tested on: Staphylococcus epidermidis 3519; assay: as above; format: cell-based; details: Staphylococcus epidermidis 3519, grown aerobically, BHI agar, read-out: Minimum inhibitory concentrations
Method: as §1, §2, §3

[25] = tested on: Streptococcus agalactiae CMX 508; assay: as above; format: cell-based; details: CMX508, Streptococcus agalactiae CMX 508, grown aerobically, BHI agar, read-out: Minimum inhibitory concentrations
Method: as §1, §2, §3

[26] = tested on: Streptococcus bovis A 5169; assay: as above; format: cell-based; details: Streptococcus equinus, A5169, Streptococcus bovis A 5169, grown aerobically, BHI agar, read-out: Minimum inhibitory concentrations
Method: as §1, §2, §3

[27] = tested on: Streptococcus pyogenes 930 CONST; assay: as above; format: cell-based; details: grown aerobically, BHI agar, read-out: Minimum inhibitory concentrations
Method: as §1, §2, §3

[28] = tested on: Streptococcus pyogenes EES 614; assay: as above; format: cell-based; details: EES614, Streptococcus pyogenes EES 614, grown aerobically, BHI agar, read-out: Minimum inhibitory concentrations
Method: as §1, §2, §3

[29] = Solubility (qualitative description); format: physicochemical
Description: High resolution, positive ion fast atom bombardment (FAB) mass spectrometry established identical molecular ions or m/z 835.3576 for the two isomers corresponding to a formula of C₃₃H₄₉N₁₃0₁₃ (calc. 835.3577). UV lambdamax=286 nm. The coumamidine gamma 1 isomer has an imidazolidone ring at the 2 and 3 position of the terminal sugar, and the coumamidine gamma 2 isomer has an oxazolidone ring at positions 3 and 4 of the terminal sugar.

Row | SMILES | MIC [1] | MIC [3] | MIC [4] | MIC [5] | MIC (Escherichia coli JUHL) | MIC (Escherichia coli SS) | MIC [7] | MIC [10] | MIC [11] | MIC [12] | MIC [13] | MIC [14] | MIC [15] | MIC [16] | MIC [17] | MIC [18] | MIC (Pseudomonas cepacia 296I) | MIC [19] | MIC [20] | MIC (Staphylococcus aureus 45) | other results
1 | CC1OC(Oc2ccc(C=CC(=O)NCCC(=N)N)cc2)C(NC(=N)N)C(O)C1NC(=O)NC1OCC(OC2OCC(O)C3NC(=O)N(C(N)=O)C23)C(O)C1NC(N)=O (stereo not drawn) [gamma 1, coumamidine gamma 1] | 0.25 µg/mL (≈ 0.299 µM) | 1 µg/mL (≈ 1.2 µM) | 4 µg/mL (≈ 4.79 µM) | 16 µg/mL (≈ 19.1 µM) | 0.25 µg/mL (≈ 0.299 µM) | 0.5 µg/mL (≈ 0.598 µM) | 0.25 µg/mL (≈ 0.299 µM) | 1 µg/mL (≈ 1.2 µM) | 2 µg/mL (≈ 2.39 µM) | 0.5 µg/mL (≈ 0.598 µM) | 8 µg/mL (≈ 9.57 µM) | 8 µg/mL (≈ 9.57 µM) | 0.25 µg/mL (≈ 0.299 µM) | 8 µg/mL (≈ 9.57 µM) | 8 µg/mL (≈ 9.57 µM) | 8 µg/mL (≈ 9.57 µM) | 32 µg/mL (≈ 38.3 µM) | 1 µg/mL (≈ 1.2 µM) | 2 µg/mL (≈ 2.39 µM) | 0.5 µg/mL (≈ 0.598 µM) | MIC [2]: 0.06 µg/mL (≈ 0.0718 µM); MIC [6]: 0.03 µg/mL (≈ 0.0359 µM); MIC [8]: 0.5 µg/mL (≈ 0.598 µM); MIC [9]: 0.5 µg/mL (≈ 0.598 µM); MIC [21]: 1 µg/mL (≈ 1.2 µM); MIC [22]: 0.25 µg/mL (≈ 0.299 µM); MIC [23]: 0.25 µg/mL (≈ 0.299 µM); MIC [24]: 0.5 µg/mL (≈ 0.598 µM); MIC [25]: 8 µg/mL (≈ 9.57 µM); MIC [26]: 16 µg/mL (≈ 19.1 µM); MIC [27]: 2 µg/mL (≈ 2.39 µM); MIC [28]: 4 µg/mL (≈ 4.79 µM); solubility in dimethylsulfoxide [29]: readily soluble; solubility in methanol [29]: slightly soluble; solubility in water [29]: readily soluble
2 | CC1OC(Oc2ccc(C=CC(=O)NCCC(=N)N)cc2)C(NC(=N)N)C(O)C1NC(=O)NC1OCC(OC2OCC3OC(=O)NC3C2NC(N)=O)C(O)C1NC(N)=O (stereo not drawn) [gamma 2, coumamidine gamma 2] | 4 µg/mL (≈ 4.79 µM) | 2 µg/mL (≈ 2.39 µM) | 4 µg/mL (≈ 4.79 µM) | 32 µg/mL (≈ 38.3 µM) | 0.5 µg/mL (≈ 0.598 µM) | 1 µg/mL (≈ 1.2 µM) | 0.5 µg/mL (≈ 0.598 µM) | 1 µg/mL (≈ 1.2 µM) | 4 µg/mL (≈ 4.79 µM) | 2 µg/mL (≈ 2.39 µM) | 16 µg/mL (≈ 19.1 µM) | 8 µg/mL (≈ 9.57 µM) | 0.5 µg/mL (≈ 0.598 µM) | 16 µg/mL (≈ 19.1 µM) | 8 µg/mL (≈ 9.57 µM) | 16 µg/mL (≈ 19.1 µM) | > 32 µg/mL | 2 µg/mL (≈ 2.39 µM) | 2 µg/mL (≈ 2.39 µM) | 1 µg/mL (≈ 1.2 µM) | MIC [21]: 1 µg/mL (≈ 1.2 µM); MIC [22]: 0.5 µg/mL (≈ 0.598 µM); MIC [23]: 0.5 µg/mL (≈ 0.598 µM); MIC [24]: 1 µg/mL (≈ 1.2 µM); MIC [25]: 16 µg/mL (≈ 19.1 µM); MIC [26]: 32 µg/mL (≈ 38.3 µM); MIC [27]: 1 µg/mL (≈ 1.2 µM); MIC [28]: 1 µg/mL (≈ 1.2 µM); solubility in dimethylsulfoxide [29]: readily soluble; solubility in methanol [29]: slightly soluble; solubility in water [29]: readily soluble
